Laboratory results published in patent US20260138970A1, “MODULATORS OF THE CALCIUM SIGNALING CASCADE” (FONDAZIONE TELETHON ETS, priority 2022, published 2026).

Columns and labels:
[1] = system: protease-activated receptors; assay: Fluo-4 Ca2+ assay, SLIGR-NH2 stimulus, HEKR2 cells; type: cell-based; conditions: SLIGR-NH2 4 μM; compounds 10 μM; FIG. 5C bottom
Method: Experiments were performed using the microplate reader described for the HS-YFP assay. FRT and HEK293 cells were cultured until confluence in 96-well microplates (3603, Corning). Cells were washed 2 times with PBS (150 μl/wash) and then loaded for 1 h at 37° C. with 5 μM Fluo-4/AM (Thermo Fisher Scientific; catalog number: F23917) in PBS containing 10 mM glucose, 0.5 mM sulfinpyrazone, and 1% fetal bovine serum. After loading, cells were washed 2 times with PBS-glucose-sulfinpyrazone (150 μl/wash) and incubated for 20 min at 37° C. with 60 μl of PBS plus 10 mM glucose and 0.5 mM sulfinpyrazone containing compounds of interest at 10 μM final concentration or vehicle. Each well was assayed individually. Fluo-4 fluorescence (500 nm excitation, 535 nm emission) was detected every 200 ms for 16-40 s. Two seconds after the start of fluorescence recording, the reader automatically injected 165 μl of a modified PBS containing 136 mM KCl instead of NaCl. This solution also contained 10 mM glucose, 0.5 mM sulfinpyrazone, and UTP or SLIGR-NH2 (CAS #171436-38-7) at a final concentration that depended on the specific cell type. […] The Fluo-4 fluorescence increase was quantified using a procedure compiled in Microsoft Excel after background subtraction and normalization for the initial value measured before UTP addition.

[2] = target: ITPR1 (Homo sapiens, UniProt Q14643); assay: ci-IP3/PM uncaging assay in HEK293 cells with selective expression of ITPR1 (HEKR1); type: cell-based; parameters: host or cells: HEKR1 (HEK293); conditions: compounds 10 μM; FIG. 4B
Chain of ITPR1 (Q14643 whole entry): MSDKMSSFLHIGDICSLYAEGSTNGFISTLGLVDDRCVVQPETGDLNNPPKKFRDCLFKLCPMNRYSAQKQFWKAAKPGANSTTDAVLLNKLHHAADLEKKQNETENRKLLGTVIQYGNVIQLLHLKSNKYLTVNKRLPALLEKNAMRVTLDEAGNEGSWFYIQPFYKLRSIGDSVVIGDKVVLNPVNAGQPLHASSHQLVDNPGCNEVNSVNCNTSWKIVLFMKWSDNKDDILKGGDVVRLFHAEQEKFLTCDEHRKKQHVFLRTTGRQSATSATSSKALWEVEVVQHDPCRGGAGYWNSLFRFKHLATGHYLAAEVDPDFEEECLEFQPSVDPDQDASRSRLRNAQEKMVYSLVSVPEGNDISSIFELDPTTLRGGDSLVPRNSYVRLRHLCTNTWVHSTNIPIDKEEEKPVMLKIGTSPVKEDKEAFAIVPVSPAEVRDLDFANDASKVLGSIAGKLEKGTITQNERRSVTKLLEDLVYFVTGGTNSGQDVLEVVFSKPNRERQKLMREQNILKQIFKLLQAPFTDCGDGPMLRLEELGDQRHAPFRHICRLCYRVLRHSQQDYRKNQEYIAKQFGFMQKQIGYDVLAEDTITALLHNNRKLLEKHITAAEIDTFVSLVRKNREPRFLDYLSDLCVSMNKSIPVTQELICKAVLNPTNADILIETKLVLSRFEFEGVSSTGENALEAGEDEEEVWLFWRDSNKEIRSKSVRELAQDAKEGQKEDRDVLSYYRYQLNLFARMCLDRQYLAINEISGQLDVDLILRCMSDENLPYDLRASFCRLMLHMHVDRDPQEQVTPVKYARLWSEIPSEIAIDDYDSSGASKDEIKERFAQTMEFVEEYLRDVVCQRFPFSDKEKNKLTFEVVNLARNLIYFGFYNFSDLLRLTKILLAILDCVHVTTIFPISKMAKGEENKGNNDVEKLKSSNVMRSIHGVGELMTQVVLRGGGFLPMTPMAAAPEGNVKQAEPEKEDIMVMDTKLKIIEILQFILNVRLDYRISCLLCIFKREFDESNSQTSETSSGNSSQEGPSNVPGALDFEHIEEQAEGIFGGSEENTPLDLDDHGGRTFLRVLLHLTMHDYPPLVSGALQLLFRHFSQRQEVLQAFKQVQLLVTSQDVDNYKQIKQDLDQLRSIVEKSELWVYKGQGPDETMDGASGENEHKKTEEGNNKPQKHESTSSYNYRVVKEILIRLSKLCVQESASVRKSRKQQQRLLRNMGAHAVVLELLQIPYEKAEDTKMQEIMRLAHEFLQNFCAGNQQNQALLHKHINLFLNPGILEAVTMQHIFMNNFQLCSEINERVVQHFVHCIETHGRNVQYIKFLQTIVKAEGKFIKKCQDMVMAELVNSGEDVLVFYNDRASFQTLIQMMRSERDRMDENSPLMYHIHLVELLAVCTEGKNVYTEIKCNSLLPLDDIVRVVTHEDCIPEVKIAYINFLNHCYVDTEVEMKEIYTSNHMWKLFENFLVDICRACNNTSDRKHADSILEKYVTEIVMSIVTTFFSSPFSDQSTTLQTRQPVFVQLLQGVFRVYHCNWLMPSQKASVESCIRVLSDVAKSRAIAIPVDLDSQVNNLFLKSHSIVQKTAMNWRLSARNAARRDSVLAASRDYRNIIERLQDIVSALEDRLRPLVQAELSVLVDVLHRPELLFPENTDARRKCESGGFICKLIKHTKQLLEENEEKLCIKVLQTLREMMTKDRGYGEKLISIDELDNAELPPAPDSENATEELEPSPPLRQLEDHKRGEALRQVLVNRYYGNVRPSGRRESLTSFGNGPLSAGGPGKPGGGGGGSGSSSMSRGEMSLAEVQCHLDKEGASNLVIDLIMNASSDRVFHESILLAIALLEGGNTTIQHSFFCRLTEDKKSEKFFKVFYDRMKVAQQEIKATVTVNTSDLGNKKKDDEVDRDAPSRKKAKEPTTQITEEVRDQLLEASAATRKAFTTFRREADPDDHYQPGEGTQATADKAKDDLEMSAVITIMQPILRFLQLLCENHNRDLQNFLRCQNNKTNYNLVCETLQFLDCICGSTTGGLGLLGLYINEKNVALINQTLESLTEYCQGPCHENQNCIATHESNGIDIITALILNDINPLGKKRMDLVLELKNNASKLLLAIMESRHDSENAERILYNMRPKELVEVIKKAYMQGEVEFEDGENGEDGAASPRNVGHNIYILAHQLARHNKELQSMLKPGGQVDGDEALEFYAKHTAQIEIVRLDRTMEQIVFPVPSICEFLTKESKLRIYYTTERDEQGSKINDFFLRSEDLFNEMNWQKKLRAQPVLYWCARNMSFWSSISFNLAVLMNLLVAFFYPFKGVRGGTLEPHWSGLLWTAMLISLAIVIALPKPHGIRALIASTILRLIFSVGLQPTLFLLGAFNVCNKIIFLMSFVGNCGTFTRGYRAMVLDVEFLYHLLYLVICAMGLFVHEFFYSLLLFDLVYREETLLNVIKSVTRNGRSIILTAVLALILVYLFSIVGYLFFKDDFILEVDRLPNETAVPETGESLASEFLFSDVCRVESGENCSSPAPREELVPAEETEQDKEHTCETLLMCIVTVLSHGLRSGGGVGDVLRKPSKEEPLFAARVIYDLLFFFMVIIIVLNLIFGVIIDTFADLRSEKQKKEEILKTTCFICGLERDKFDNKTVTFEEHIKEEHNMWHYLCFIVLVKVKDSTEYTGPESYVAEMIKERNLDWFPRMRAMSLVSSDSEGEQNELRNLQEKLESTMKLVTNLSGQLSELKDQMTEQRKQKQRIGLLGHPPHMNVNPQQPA
Method: HEK293 cells totally devoid of ITPR expression (HEK3XKO) or with selective expression of ITPR1 (HEKR1), ITPR2 (HEKR2), or ITPR3 (HEKR3), obtained by selective gene ablation, were purchased from Kerafast (catalog number: EURO30, EURO31, EURO32, EURO33) and cultured in a mixture of Dulbecco's Modified Eagle Medium (DMEM, high glucose version) and Ham's F12 (1:1) and supplemented with 10% fetal bovine serum, 2 mM L-glutamine, 100 U/ml penicillin and 100 μg/ml streptomycin.
FRT and HEK293 cells were cultured in μ-Plate96 microplates (Ibidi) at subconfluent condition. Cells were washed 2 times with PBS (150 μl/wash) and then loaded for 45 min at 37° C. with 1 μM ci-IP3/PM (Tocris; catalog number: 6210/10U) and 5 μM Fluo-4/AM (Thermo Fisher Scientific) in PBS containing 10 mM glucose, 0.5 mM sulfinpyrazone and 1% fetal bovine serum. After 45 min, cells were further incubated for 1 h at 37° C. with a fresh PBS solution containing Fluo-4/AM, glucose, sulfinpyrazone, serum, but no ci-IP3/PM. […] Analysis was performed with MetaFluor software, by quantifying Fluo-4 fluorescence in manually selected single cell region of interest (ROI). […] After background subtraction, fluorescence traces were normalized for the initial value.

Structure (SMILES) | potentiation of SLIGR-NH2 stimulus (Ca2+ mobilization), HEKR2 cells [1] | activity on Ca2+ mobilization by IP3 uncaging, cells with selective expression of ITPR1 [2]
OCc1ccccc1CN(Cc1ccnc(N2CCCC2)n1)c1ccc(F)cc1 [ARN4550, [2-[[4-Fluoro-N-[(2-pyrrolidin-1-ylpyrimidin-4-yl)methyl]anilino]methyl]phenyl]methanol] | only compound that potentiated | 
CCn1nc2c(c1C(=O)Nc1ccccc1OCC1CCCCO1)CCCC2 (centres unmarked) [ARN11391, 2-Ethyl-N-[2-(tetrahydropyran-2-ylmethoxy)phenyl]-4,5,6,7-tetrahydroindazole-3-carboxamide] |  | uniquely effective
